Test results published in patent publication US20080260842A1, “PERMEATION ENHANCING COMPOSITIONS FOR ANTICHOLINERGIC AGENTS” (priority 2004, published 2008).
Like-named read-outs stand apart in the source and are kept apart here.

Key:
[1] = Pilot pharmacokinetic study of an oxybutynin gel formulation in healthy volunteers (Example 17); details: Treatment A (60 mg/day gel), 156 h, individual subjects
Procedure: (§1) Subjects were excluded on the basis of any preexisting condition or finding on the prestudy examination that would place them at risk during the study. Written informed consent was obtained from each subject before participating in any study-related procedures after discussion and explanation of the study.
(§2) Treatments were administered according to an open-label, multiple-dose, escalating dose titration pilot pharmacokinetic study and included a transdermal oxybutynin gel. Steady-state conditions were achieved by administering daily doses for 7 days. Subjects participated in 2 study periods during which the test medication (a transdermal gel) was applied once daily. 2 g of the gel (corresponding to a dose of 60 mg of oxybutynin) was applied daily during the first study period (Treatment A), then 1 g (corresponding to a dose of 30 mg of oxybutynin) during the second study period (Treatment B). A wash-out period of 7 days was observed between the two study periods. Both dosages were tested on same subjects. The design allows comparison between different dosages of the same formulation within the subject and removes inter-subject variability.
(§3) The main objective of this study was to assess the pharmacokinetic parameters of an oxybutynin gel formulation, administered in two different doses, administering the product in 8 healthy female volunteers.
(§4) The secondary objective of this study was to record safety parameters such as adverse events, skin tolerance, vital signs, e.g., blood pressure and heart rate.

[2] = Dose-ranging pharmacokinetic study of transdermal oxybutynin gel in healthy volunteers (Example 18); details: after 20 days (steady-state), mean ± SD, N = 16
Procedure: The study was an open-label, randomized, parallel, three-treatment, dose-ranging pharmacokinetic study. […] The subjects were aged 19 to 53 (mean 35) years.
The oxybutynin transdermal gel formulation contained 3% w/w of oxybutynin base in a hydroalcoholic non-occlusive matrix including the unique combination of permeation enhancers of the present invention. Three different doses of the gel were administered topically once a day during 20 consecutive days: treatment A consisted in a daily amount of 1.4 g applied gel, corresponding to 42 mg oxybutynin; treatment B consisted in a daily amount of 2.0 g applied gel, corresponding to 60 mg oxybutynin; and treatment C consisted in a daily amount of 2.8 g applied gel, corresponding to 84 mg oxybutynin.

[3] = clinical; details: both, human, in vivo, 84 mg, Tmax median
[4] = both, human, in vivo
[5] = system: detrusor muscle; details: cited from earlier work
[6] = female, human, in vivo
Procedure: as §1, §2, §3, §4

[7] = Pharmacokinetic study of R/S OXY and DEO enantiomers, transdermal oxybutynin gel (Example 20); format: in vivo, human; details: single-dose topical 84 mg OXY gel, abdominal area, normalized to 84 mg, mean ± SD, N = 10
Procedure: Ten healthy volunteers (Asian Indians, 60% female) aged 18 to 35 (mean 29) years old were treated with 2.8 g of a formulation of the present invention containing 3% w/w of OXY base (84 mg OXY), administered topically as a single dose on the abdomen (700 cm^2).

`CCNCC#CCOC(=O)C(O)(c1ccccc1)C1CCCCC1` (centres unmarked) [N-desethyloxybutynin] showed a N-desethyloxybutynin concentration [1] of 11.970 ng/L, a Cav ([2]; Treatment A: 42 mg oxybutynin daily) of 3.0 ± 1.3 ng/mL and a Cav ([2]; Treatment B: 60 mg oxybutynin daily) of 4.0 ± 2.1 ng/mL. It also gave a Cav ([2]; Treatment C: 84 mg oxybutynin daily) of 7.0 ± 4.0 ng/mL.

For `CCN(CC)CC#CCOC(=O)C(O)(c1ccccc1)C1CCCCC1` (centres unmarked) [Oxybutynin], the Tmax [3] was 24 h, the “time to reach plasmatic levels of about 1 to 4 ng/ml” value [4] was “about 2 hours” and the “time to reach plasmatic levels of about 2 to 4 ng/ml” value [4] was “less than 4 hours”. For the same molecule, the “time to reach plasmatic levels of about 3 to about 4 ng/ml” value [4] was “less than 6 hours”, the “time up to which plasmatic levels of about 1 to 4 ng/ml are sustained” value [4] was “at least 72 hours” and the “time up to which plasmatic levels of about 2 to 4 ng/ml are sustained” value [4] was “at least 48 hours”. The “time up to which plasmatic levels of about 3 to about 4 ng/ml are sustained” value [4] was “at least 36 hours”, the “antispasmodic activity relative to atropine” value [5] was “four to ten times” and the “anticholinergic activity relative to atropine” value ([5]; detrusor muscle, effect observed in rabbits) was “one-fifth”. For the same molecule, the “Treatment A/Treatment B Ratio - Oxybutynin” value [6] was 1.93 and the “Treatment A/Treatment B Ratio - Oxybutynin” value ([6]; 0 h) was 0.

`CCNCC#CCOC(=O)[C@](O)(c1ccccc1)C1CCCCC1` [R-DEX] gave an AUC0-120 [7] of 269.5 ± 132.8 ng·h/mL and a Cmax [7] of 6.3 ng/mL.

For `CCN(CC)CC#CCOC(=O)[C@](O)(c1ccccc1)C1CCCCC1` [R-OXY], the AUC0-120 [7] was 151.1 ± 56.0 ng·h/mL and the Cmax [7] was 3.6 ng/mL.

`CCNCC#CCOC(=O)[C@@](O)(c1ccccc1)C1CCCCC1` [S-DEX] showed an AUC0-120 [7] of 285.5 ± 152.9 ng·h/mL and a Cmax [7] of 6.9 ± 3.8 ng/mL.

`CCN(CC)CC#CCOC(=O)[C@@](O)(c1ccccc1)C1CCCCC1` [S-OXY] gave an AUC0-120 [7] of 246.0 ± 96.7 ng·h/mL and a Cmax [7] of 5.8 ± 2.6 ng/mL.
